This is an account of results in article PMC10135050, “Neutralizing Carbapenem Resistance by Co-Administering Meropenem with Novel β-Lactam-Metallo-β-Lactamase Inhibitors” (Antibiotics, 2023).

SMILES strings stand for the structures. In brackets after ≈: the same amount, converted by molar mass. Entries after “also recorded” stand apart in the source; their conditions may differ.

For data set [1], the system named is Escherichia coli TC CARF (VIM-2). Nature of the data set: MIC, broth microdilution and checkerboard assay. The data set is classed as cell-based. Particulars: read-out: MIC BP2 Alone. As for the experimental part: (§1) The Minimum Inhibitory Concentration (MIC) of meropenem BP2 was determined utilizing the broth microdilution assay, as described by the Clinical and Laboratory Standards Institute (CLSI) antimicrobial susceptibility guidelines. The mono-therapeutic effect of each antibiotic and MBLI was evaluated across a panel of MBL-producing Enterobacterales.
(§2) The drug susceptibility profile of meropenem in combination with BP2 was studied using the checkerboard assay. This assay was used to ascertain the effect of two drugs on antimicrobial resistance targeting CRE strains. The assay was performed according to the protocol described previously and was under CLSI antimicrobial susceptibility guidelines. Briefly, twofold dilutions of meropenem with each chelator were made in Cation-adjusted Mueller Hinton Broth (CAMHB) in a 96-well microtiter plate. A 0.5 McFarland-standardized bacterial inoculum was added to each well to obtain a final volume of 100 µL per well. Thereafter, plates were incubated at 37 °C for 18 h under aerobic conditions. The checkerboard assays were performed in triplicate. The MIC was determined as the lowest concentration at which no visible growth was present. The fractional inhibitory concentration index (FICI) was calculated for each combination according to the equation FICI = FICa (MIC of drug A in combination/MIC of drug A alone) + FICb (MIC of drug B in combination/MIC of drug B alone). The FICI was interpreted as follows: synergy, FICI ≤ 0.5; additive 0.5–1; indifference, […] FICI < 4; and antagonism, FICI ≥ 4 [61].

Data set [2] has as its system Klebsiella pneumoniae USA 449 (NDM). Nature of the data set: MIC, broth microdilution and checkerboard assay. The format is cell-based. Particulars: read-out: MIC BP2 Alone. The protocol:
as §1, §2

Data set [3] is described as follows: MTT cell viability assay. The data set is classed as cell-based, human. Particulars: human, HepG2 cells, 6 h, read-out: IC50 cytotoxicity. As for the experimental part: (§3) HepG2 cells were cultured in 25 mL cell culture flasks using Eagle’s minimum essentials medium (EMEM) supplemented with 10% fetal bovine serum, 1% pen-strep-fungizone and 1% L-glutamine, maintained in a humidified incubator (37 °C, 5% CO2) until approximately 80% confluence.
(§4) The MTT assay was one of the methods used to determine in vitro cell viability of BP on HepG2 cells. HepG2 cells (15,000 cells/well) were seeded into a 96-well microtiter plate and allowed to adhere overnight (37 °C, 5% CO2). Thereafter, the cells were incubated (37 °C, 5% CO2) with a range of BP concentrations (0, 1, 8, 10, 50, 100 and 200 μg/mL) in triplicate for 6 h. After the 6 h incubation, the cells were washed with 0.1 M phosphate-buffered saline (PBS) and incubated with MTT salt solution (5 mg/mL in 0.1 M PBS) and 100 μL CCM for 4 h (37 °C, 5% CO2). The MTT salt solution was removed, and DMSO (100 μL/well) was added and incubated for 1 h. The optical density was measured using a spectrophotometer (Bio-Tek μQuant) at 570/690 nm. Results are expressed as % cell viability versus BP2 concentration (μg/mL).

For data set [4], the system named is HepG2 cells. Nature of the data set: MTT cell viability assay. The data set is classed as cell-based, human. The protocol:
as §3, §4

The target in data set [5] is T1, Recombinant human glyoxylase II (Glo2) (Homo sapiens, UniProt Q16775).
T1 construct: purchased BioVision Inc., Waltham, MA, USA
The data set is described as follows: Non-specific binding to zinc in non-MBLs, glyoxylase II activity. The note with it: concentrations up to 500 µM. The data set is classed as biochemical. The text has this: Metal chelators are known to suffer from off-target specificity and as a result have been criticized as potential MBLIs in vivo [44].
The methodology has been previously described. EDTA (purchased from Merck KGaA, Darmstadt, Germany) was included as a positive control.

The subject of data set [6] is Escherichia coli ATCC 25922. The data set is described as follows: MIC, broth microdilution and checkerboard assay. The data set is classed as cell-based. Particulars: ATCC25922, E. coli ATCC 25922, no MBL, alone, read-out: MIC MEM Alone. As for the experimental part: as §1, §2
Data set [7] deals with K. pneumoniae NDM. Nature of the data set: Time-kill study. The format is cell-based. The note with it: meropenem monotherapy. The protocol:
Time-kill studies were performed according to previously published methods, including those described by CLSI document M26-A [62]. Briefly, an overnight culture of K. pneumoniae NDM was diluted to a 0.5 McFarland standard that correlated to approximately […]. The prepared bacterial suspensions were added to 96-well plates containing a fixed dose of 32 mg/L of BP2 and meropenem in concentrations of 0.5, 1 or 2 mg/L. Plates were incubated at 35 °C and 100 rpm shaking. A bacterial control without adding any drugs was included, and a meropenem-only control employing similar conditions. Viability counts were performed at 0, 2, 4, 6, 8, and 24 h by sampling 0.1 mL, diluting as appropriate, and spreading onto Mueller Hinton agar (MHA). These plates were incubated at 35 °C for at least 18 h. Colonies were enumerated as cfu/mL.

Data set [8] deals with K. pneumoniae NDM. The data set is described as follows: Murine thigh infection model. The format is in vivo, Klebsiella pneumoniae. The note with it: neutropenic BALB/c mice, 100 mg/kg IP every 2 h. The protocol:
A murine thigh infection model described by Michail et al. was performed with minor modifications. Male Bragg inbred albino c-strain (BALB/c) mice weighing 20–25 g (n = 90) were used in this study. Each of the three groups constituted n = 30 mice, with n = 6 mice receiving treatment every two hours. Prior to infection, mice were IP treated with 150 mg/kg cyclophosphamide on day one and 100 mg/kg on day four of the trial. This was performed to induce neutropenia in the mice. Neutropenia was confirmed by a neutrophil count of <100/mm^3. On day five of the trial, 0.1 mL inoculum containing 10^6–10^8 cfu/mL of K. pneumoniae NDM were IM injected into the right thigh of the mice to initiate infection. Meropenem monotherapy, BP2 + meropenem combination therapy, or normal saline was administered every two hours in an eight-hour treatment period. Mice were euthanized by isoflurane overdose at 2 h, 4 h, 6 h and 8 h post dosing. The right thigh muscle was then aseptically removed and homogenized in 5 mL PBS. Homogenates were spread onto Mueller–Hinton agar and MacConkey agar plates, followed by incubation at 35 °C for 24 h and enumeration of the cfu/mL.

In the case of `CON=C(C(=O)NC1C(=O)N2C(C(=O)O)=C(COC(C)=O)CSC12)c1csc(NC(=O)CC(C(=O)OC)N2CCN(CC(=O)O)CCN(CC(=O)O)CC2)n1` (stereo in doubt) [BP2], the MIC in data set [1] and in data set [2] was over 256 µg/mL each time. Further, the IC50 at 6 h in data set [3] was determined as 62 µg/mL (≈ 76.3 µM). Besides, the “Cell viability compared to the control” value in data set [4] (1 µg/mL and 10 µg/mL) is “significantly increased”; in data set [4] (200 µg/mL), “significant decrease”; in data set [4] (50–100 µg/mL), “not significantly altered”. Also, the “Glyoxylase II activity” value in data set [5] is recorded as “did not reduce the activity; also recorded: did not interact”.
For the compound `C[C@@H](O)[C@H]1C(=O)N2C(C(=O)O)=C(S[C@@H]3CN[C@H](C(=O)N(C)C)C3)[C@H](C)[C@H]12` [Meropenem], in data set [6], the MIC was 0.06 µg/mL. Further, the “Increase in bacteria compared to the BP2 + meropenem-treated group” value in data set [7] is over 2 log10. Further, the “Best Log10 Cfu/ml” value is 7.2 Log10 Cfu/ml in data set [8] (treatment time 2 h), 8 Log10 Cfu/ml in data set [8] (treatment time 4 h), 8.3 Log10 Cfu/ml in data set [8] (treatment time 6 h) and 8.3 Log10 Cfu/ml in data set [8] (treatment time 8 h). In addition, the “Mean Log10 Cfu/ml” value in data set [8] (treatment time 2 h) is recorded as 6.8 Log10 Cfu/ml; in data set [8] (treatment time 4 h) it was 8.3 Log10 Cfu/ml; in data set [8] (treatment time 6 h), 8.4 Log10 Cfu/ml; in data set [8] (treatment time 8 h), 8.2 Log10 Cfu/ml.
